Assays:
[1] = system: Salmonella typhimurium TA102; test: AMES test, mutagenic evaluation in Salmonella typhimurium TA102 strain with/without metabolic activation (S9); type: cell-based
Method: The procedure was firstly developed by (MARON, D. M. and AMES, B. N. Mut. Res. v. 113, pp. 173-215, 1983)
For this assay, Salmonella typhimurium TA100 and TA102 strains from the mutagenicity laboratory of the “Faculdade de Ciências Farmacêuticas—UNESP Araraquara” were used. Such strains have the following characteristics: (AMES, 1983)
The positive controls are mutagenic compounds specific for each strain and test condition, with 25 μL/plate of sodium azide (1.25 μg/plate) and 100 μL of mitomycin (0.5 μg/plate) being the controls for TA100 and TA102, respectively, in the absence of metabolic activation. For assays with metabolic activation, the positive control for TA100 is 50 μL 2-antramine (1.25 μg/plate) and for TA102 it is 50 μL 2-aminofluorene (1.25 μg/plate).
The preincubation method was used.
In laminar flow, Salmonella typhimurium (TA100 and TA 102) strains were inoculated individually with a platinum loop, in the respective nutrient broths and maintained at 37° C., under constant stirring (160 rpm) during 14 hours, in order to achieve a density of 1 to 2×10^9 bacteria/mL.
Different concentrations of the compounds were added into 100 μL of 0.2M phosphate buffer pH 7.4 (or 500 μL of the mixture S9 in metabolic activation assays) and incubated for 20-30 minutes at 37° C. Solutions containing the compounds had DMSO as the solvent. Thereafter, 2 mL of top agar supplemented with traces of histidine and biotin was added, homogenized and plated in glycosylated minimum medium. After solidification of the top agar, the plates were incubated for 48 hours at a 37° C. Then, the counting of the number of revertant colonies per plate was performed. All tested concentrations, positive and negative controls were run in triplicate.
After 48 hours, the revertant colonies were counted manually, and the protoCOL Colony Counter Version 3.15.630 (1998-2001) SYNBIOSIS LTD system was used for the positive control.
The final data obtained from the assay was analyzed using the statistical software Salanal (Salmonella Assay Analysis) version 1.0 from the Research Triangle Institute, RTP, North Carolina, USA. Such software allows the dose-response effect to be evaluated by means of analysis of variance (ANOVA-test F) computations between the measurement of the number of revertants at the different tested concentrations (doses) and the negative control, followed by a linear regression. The software model chosen for analyzing the data was Bernstein's (BERNSTEIN, L. et al. Mutat. Res. v. 97, p. 267-281, 1982). The slope of the straight line from the linear portion of the dose-response curve is also provided by this software and corresponds to the number of revertants induced per measurement unit of the analyzed sample.
From the results, the mutagenicity ratio (MR) was computed for each analyzed dose from each compound. MR is given by the following equation:
MR=average number of revertants per test plate (spontaneous+induced revertants) […] average number of revertants per plate of the negative control (spontaneous revertants)
The spontaneous growing means that the number of revertants which developed on the plate, regardless of being induced or not, wherein values higher or equal to 2 are considered as a positive response (VALENT, G. V. et al. Env. Toxicol. Water Quality. v. 8, p. 371-381, 1993).
The mutagenicity test with metabolic activation system was performed with a microsomal fraction S9 (S9 mix) prepared from a liver homogenizate from Sprague Dawley rats, previously treated with Aroclor 1254, acquired in the freeze-dried form.
The procedure for this assay is the same, however, instead of the buffer, 500 μL of the S9 mixture should be added.
The S9 mixture has a viability of 4 hours from preparation when put on ice. The plates are then incubated for 48 hours at 37° C. After the required time has elapsed, the counting of the revertant colonies was carried out. All tested concentrations, positive and negative controls were run in triplicate.

[2] = system: mouse ear edema induced by capsaicin; test: Mouse ear edema assay induced by capsaicin; type: in vivo; conditions: 300 μmol/Kg i.p., capsaicin 250 μg/ear 1 hour after administration
Method: This assay is characterized by an acute inflammatory response of the ear, with development of edema, and it was performed in order to evaluate the anti-inflammatory activity of the synthesized compounds.
In this assay, indomethacin was used as a control at 100 μmol/Kg, and the phthalimide derivatives were firstly evaluated at 300 μmol/Kg via i.p. From table 4, it can be observed that compounds IC and IE show an ear edema inhibition percentage higher than 64%. […] The other compounds, however, show a similar activity when compared to indomethacin (FIG. 01), taking into consideration the standard error.
This assay was performed using Swiss mice from both genders weighing from 18 to 30 grams. The animals were fasted for 8 hours with free access to water. This assay consists in locally administering (right ear) 20 μl of a capsaicin solution (250 μg/ear) diluted in acetone, 1 hour after the i.p. administration (diluted in 0.5% gum arabic). The left ear (control) received the carrier in which capsaicin was diluted (acetone) and the right ear received capsaicin. This assay is characterized by an acute inflammatory response of the ear, with development of edema. The animals were sacrificed and their ears were weighted to obtain the inflammation index. A biopsy (8 mm in diameter) of the ear was carried out. Next, the weights of the inflamed ears were compared against the weights of the contralateral ear (control ear) which were not treated with the phlogistic agent. The edema inhibition percentage was calculated by subtracting the ear treated with the carrier by that treated with capsaicin from each group of animals treated with the test substances, and then it was divided by the difference between the groups of the irritating agents and the control groups.

O=C1c2ccccc2C(=O)N1CCO[N+](=O)[O-] [IB, 2-(1,3-dioxo-1,3-dihydro-2H-isoindol-2-yl)ethyl nitrate]
mutagenicity ratio (MR) ([1]; TA 102, +S9, 0.01 μmol/plate): 1.13
number of revertants per plate ([1]; TA 102, +S9, 0.01 μmol/plate): 249 ± 11.7 revertants/plate
mutagenicity ratio (MR) ([1]; TA 102, +S9, 0.021 μmol/plate): 1.22
number of revertants per plate ([1]; TA 102, +S9, 0.021 μmol/plate): 269 ± 10.6 revertants/plate
mutagenicity ratio (MR) ([1]; TA 102, +S9, 0.042 μmol/plate): 1.09
number of revertants per plate ([1]; TA 102, +S9, 0.042 μmol/plate): 239 ± 22.5 revertants/plate
mutagenicity ratio (MR) ([1]; TA 102, +S9, 0.085 μmol/plate): 1.12
number of revertants per plate ([1]; TA 102, +S9, 0.085 μmol/plate): 247 ± 21.4 revertants/plate
mutagenicity ratio (MR) ([1]; TA 102, +S9, 0.17 μmol/plate): 0.97
number of revertants per plate ([1]; TA 102, +S9, 0.17 μmol/plate): 214 ± 32 revertants/plate
mutagenicity ratio (MR) ([1]; TA 102, −S9, 0.01 μmol/plate): 1.22
number of revertants per plate ([1]; TA 102, −S9, 0.01 μmol/plate): 394 ± 30 revertants/plate
mutagenicity ratio (MR) ([1]; TA 102, −S9, 0.021 μmol/plate): 1.55
number of revertants per plate ([1]; TA 102, −S9, 0.021 μmol/plate): 452 ± 23 revertants/plate
mutagenicity ratio (MR) ([1]; TA 102, −S9, 0.042 μmol/plate): 1.25
number of revertants per plate ([1]; TA 102, −S9, 0.042 μmol/plate): 502 ± 14 revertants/plate
mutagenicity ratio (MR) ([1]; TA 102, −S9, 0.085 μmol/plate): 1.34
number of revertants per plate ([1]; TA 102, −S9, 0.085 μmol/plate): 405 ± 24 revertants/plate
mutagenicity ratio (MR) ([1]; TA 102, −S9, 0.17 μmol/plate): 1.54
number of revertants per plate ([1]; TA 102, −S9, 0.17 μmol/plate): 433 ± 35.4 revertants/plate
Average inhibition % (ear edema) [2]: 46.55%

O=C1c2ccccc2C(=O)N1c1ccc(CO[N+](=O)[O-])cc1 [ID, 4-(1,3-dioxo-1,3-dihydro-2H-isoindol-2-yl)benzyl nitrate]
mutagenicity ratio (MR) ([1]; TA 102, +S9, 0.224 μmol/plate): 1.09
number of revertants per plate ([1]; TA 102, +S9, 0.224 μmol/plate): 405.7 ± 13 revertants/plate
mutagenicity ratio (MR) ([1]; TA 102, +S9, 0.488 μmol/plate): 1.16
number of revertants per plate ([1]; TA 102, +S9, 0.488 μmol/plate): 434.7 ± 21 revertants/plate
mutagenicity ratio (MR) ([1]; TA 102, +S9, 0.896 μmol/plate): 0.99
number of revertants per plate ([1]; TA 102, +S9, 0.896 μmol/plate): 370 ± 6 revertants/plate
mutagenicity ratio (MR) ([1]; TA 102, +S9, 1.8 μmol/plate): 1.06
number of revertants per plate ([1]; TA 102, +S9, 1.8 μmol/plate): 397.3 ± 9.3 revertants/plate
mutagenicity ratio (MR) ([1]; TA 102, +S9, 3.58 μmol/plate): 1.14
number of revertants per plate ([1]; TA 102, +S9, 3.58 μmol/plate): 427.3 ± 5 revertants/plate
mutagenicity ratio (MR) ([1]; TA 102, −S9, 0.224 μmol/plate): 1.31
number of revertants per plate ([1]; TA 102, −S9, 0.224 μmol/plate): 340.3 ± 9.7 revertants/plate
mutagenicity ratio (MR) ([1]; TA 102, −S9, 0.488 μmol/plate): 1.43
number of revertants per plate ([1]; TA 102, −S9, 0.488 μmol/plate): 373.5 ± 21 revertants/plate
mutagenicity ratio (MR) ([1]; TA 102, −S9, 0.896 μmol/plate): 1.5
number of revertants per plate ([1]; TA 102, −S9, 0.896 μmol/plate): 391.2 ± 6.3 revertants/plate
mutagenicity ratio (MR) ([1]; TA 102, −S9, 1.8 μmol/plate): 1.87
number of revertants per plate ([1]; TA 102, −S9, 1.8 μmol/plate): 486.8 ± 20 revertants/plate
mutagenicity ratio (MR) ([1]; TA 102, −S9, 3.58 μmol/plate): 1.62
number of revertants per plate ([1]; TA 102, −S9, 3.58 μmol/plate): 420 ± 8.6 revertants/plate
Average inhibition % (ear edema) [2]: 37.18%

Reference: patent US8314255B2, “Use of phthalimide and/or sulphonamide derivatives in the treatment of diseases which require reducing the TNF- α levels and an exogenous source of nitric oxide, phthalimide derivatives, sulphonamide derivatives, and a method for obtaining a sulphonamide derivative” (priority 2007, dated 2012)
